# According to article PMC11926788, “Effect of SSR504734, a Selective Glycine Transporter Type 1 Inhibitor, on Seizure Thresholds, Neurotransmitter Levels, and Inflammatory Markers in Mice” (ACS Chemical Neuroscience, 2025):
# Counter-ions that a name gives are not always drawn. Like-named read-outs stand apart in the source and are kept apart here.
# Tests used:
# [1] = system: tonic hindlimb extension in the MEST test in mice; experiment: Maximal electroshock seizure threshold (MEST) test; assay type: in vivo
# Method: A sinusoidal current alternation was delivered via saline-soaked transcorneal electrodes. Before stimulation, an ocular anesthetic (1% tetracaine hydrochloride solution obtained from Sigma-Aldrich, St. Louis, MO, USA) was administered to each eye of the mice. During stimulation, the mice were manually immobilized in a hand for 3–5 s and immediately relocated to a transparent box for behavioral observation after the stimulation. Hindlimb tonic extension was taken as an end point. Two experimental approaches were employed: (1) the maximal electroshock seizure threshold (MEST) test at varied current intensities and (2) the maximal electroshock (MES) test at a fixed current intensity.
# In the MEST test, seizure thresholds were determined using the “up-and-down” method described by Kimball et al.[28] […] Each mouse was stimulated only once.
# [2] = Pharmacokinetic study of SSR504734 in mice (serum and tissue concentrations by LC-MS/MS, noncompartmental analysis); assay type: in vivo
# Method: SSR504734 was administered i.p. at the dose of 30 mg/kg, and mice were sacrificed by decapitation at 5, 15, 30, 60, 120, 240, and 480 min after dosing. The trunk blood samples (∼1 mL) were collected in polypropylene tubes and allowed to clot at room temperature. Subsequently, the blood was centrifuged at 5600 rpm for 10 min. Serum samples were collected in new tubes. Immediately after decapitation, brains and other tissues such as the liver, lungs, kidneys, heart, spleen, gut, and adipose were removed from the skull and washed with cold 0.9% NaCl. Samples were kept at −80 °C until the day of analysis.
# Serum and tissue concentrations of SSR504734 in mice were quantified by a liquid chromatography tandem mass spectrometry (LC-MS/MS) method. Stock solutions of the studied compound were prepared in methanol at a concentration of 1 mg/mL. Working solutions were prepared by dilution of the standard solutions in acetonitrile/water 1:1 (v/v). Tissue homogenates were obtained by homogenization of each tissue in distilled water at a ratio of 1:4 (w/v) using a basic T10 ULTRA-TURRAX tissue homogenizer (IKA, Poland). Mouse serum and tissues, which were used to prepare standard samples and quality control (QC) samples, were harvested from untreated healthy animals after exsanguination. Standard and QC samples were prepared by adding 5 μL of working solutions of SSR504734 to 45 μL of mouse serum or 45 μL of tissue homogenates. Real serum and homogenate samples, QC samples, and standard samples were subjected to the same precipitation procedure. Briefly, 150 μL of 0.1% formic acid solution in acetonitrile containing pentoxifylline (PTX) as an internal standard (IS) at a concentration of 5 ng/mL was added to 50 μL of analyzed serum, homogenate, standard samples, or QC samples in Eppendorf tubes and mixed on a vortex mixer for 10 min (IKA Vibrax VXR, Germany). Subsequently, samples were centrifuged at 10,000 rpm for 10 min at room temperature (Eppendorf miniSpin centrifuge). 2 μL of supernatant was subjected to LC-MS/MS analysis using an Exion LC AC HPLC system coupled to a SCIEX QTRAP 4500 triple-quadrupole mass spectrometer (Danaher Corporation, Framingham, MA, US). Chromatographic separation was performed using a Hypersil Gold C18 analytical column (2.1 × 50 mm, 3 μm) (Thermo Scientific, USA) at 25 °C. The mobile phase consisting of water containing 0.1% formic acid and acetonitrile containing 0.1% formic acid (60:40, v/v) was pumped at a flow rate of 0.5 mL/min in an isocratic elution mode. All detections were performed in positive ion mode. The selected reaction monitoring (SRM) for the transitions was m/z 397.2 → 207.0 and m/z 397.2 → 174.2 (quantifier and qualifier) for SSR504734 and m/z 279 → 181 for IS. The optimal MS parameters for SSR504734 multiple reaction monitoring (MRM) transitions selected by continuous infusion of the standard solution at the rate of 7 μL/min using a Harvard infusion pump were as follows: the declustering potential was 120 V, the collision energy was 35.6 V, the entrance potential was 10 V, and the cell exit potential was 6 V. These parameters for IS were 60, 24, 10, and 6 V, respectively. An additional tuning optimization of gas flows and temperatures was performed by flow injection analysis. The ion source temperature was maintained at 450 °C, the ion spray voltage at 4000 V, the curtain gas (CUR) was set at 25 psi, the nebulizer (GS1) and TIS (GS2) gases at 40.0 and 50.0 psi, respectively, and the collision gas (CAD) at Medium.
# Data acquisition and processing were carried out using Analyst 1.7 software. The calibration curves were constructed by plotting the ratio of the peak area of the analyte to the peak area of the IS vs the concentration of the analyte and generated by weighted (1/y) nonlinear regression analysis by fitting a quadratic formula. […]
# [3] = system: tonic hindlimb extension in the MEST test in rats; settings: cited from earlier work
# [4] = mouse, ip, adipose, single 30 mg/kg i.p.
# [5] = mouse, ip, brain, single 30 mg/kg i.p.
# [6] = mouse, ip, gut, single 30 mg/kg i.p.
# [7] = mouse, ip, heart, single 30 mg/kg i.p.
# [8] = mouse, ip, kidneys, single 30 mg/kg i.p.
# [9] = mouse, ip, liver, single 30 mg/kg i.p.
# [10] = mouse, ip, lungs, single 30 mg/kg i.p.
# [11] = mouse, ip, serum, single 30 mg/kg i.p.
# [12] = mouse, ip, spleen, single 30 mg/kg i.p.
compound,measurement,setting,value
"O=C(NC(c1ccccc1)C1CCCCN1)c1cccc(C(F)(F)F)c1Cl [SSR504734, 2-chloro-N-[(S)-phenyl[(2S)-piperidin-2-yl]methyl]-3-trifluoromethyl benzamide monohydrochloride]","fold increase of seizure threshold (CS50), time-course","[1]; 30 mg/kg i.p., 60 and 120 min after administration, vs control",~1.3 fold
same,"effect on seizure threshold (CS50), time-course","[1]; 30 mg/kg i.p., at 30, 60, 120 and 240 min",significantly raised the seizure threshold
same,fold increase in CC50 value,"[1]; 14-day repeated treatment, 30 mg/kg i.p.",1.2 fold
same,effect on seizure threshold,"[1]; 14-day repeated treatment, 3 and 10 mg/kg i.p.",no changes in seizure threshold
same,effect on threshold for tonic hindlimb extension,"[1]; acute, 10 mg/kg i.p., 60 min before test",ineffective
same,fold increase of current intensity necessary to induce hindlimb tonus,"[1]; acute, 30 mg/kg i.p., 60 min before test",1.2 fold
same,fold increase of current intensity necessary to induce hindlimb tonus,"[1]; acute, 50 mg/kg i.p., 60 min before test",1.6 fold
same,AUClast,"[2]; adipose, single 30 mg/kg i.p.",3347.89 µg·min/mL (g tissue)
same,AUClast,"[2]; brain, single 30 mg/kg i.p.",1137.50 µg·min/mL (g tissue)
same,"Kp (tissue-to-serum partition coefficient, AUClast(tissue)/AUClast(serum))","[2]; brain, single 30 mg/kg i.p., 30 mg/kg",3.05
same,AUClast,"[2]; gut, single 30 mg/kg i.p.",10606.43 µg·min/mL (g tissue)
same,AUClast,"[2]; heart, single 30 mg/kg i.p.",4841.83 µg·min/mL (g tissue)
same,AUClast,"[2]; kidneys, single 30 mg/kg i.p.",16781.00 µg·min/mL (g tissue)
same,AUClast,"[2]; liver, single 30 mg/kg i.p.",8821.36 µg·min/mL (g tissue)
same,AUClast,"[2]; lungs, single 30 mg/kg i.p.",33485.57 µg·min/mL (g tissue)
same,Kp,"[2]; mouse, adipose (relative to serum), ip, 30 mg/kg, adipose, single 30 mg/kg i.p., read-out: Kp (tissue-to-serum partition coefficient)",8.98
same,Kp,"[2]; mouse, brain (relative to serum), ip, 30 mg/kg, brain, single 30 mg/kg i.p., read-out: Kp (tissue-to-serum partition coefficient, AUClast(tissue)/AUClast(serum))",> 3
same,Kp,"[2]; mouse, gut (relative to serum), ip, 30 mg/kg, gut, single 30 mg/kg i.p., read-out: Kp (tissue-to-serum partition coefficient)",28.5
same,Kp,"[2]; mouse, heart (relative to serum), ip, 30 mg/kg, heart, single 30 mg/kg i.p., read-out: Kp (tissue-to-serum partition coefficient)",13
same,Cmax,"[2]; mouse, ip, 30 mg/kg i.p., assuming brain tissue density of ∼1 g/mL, read-out: Cmax in the brain tissue",5150 ng/mL
same,MRT,[2]; [4],1.37 h
same,Tmax,[2]; [4],0.0833 h
same,half-life,[2]; [4],1.33 h
same,Cmax,"[2]; mouse, ip, adipose, single 30 mg/kg i.p., read-out: Cmax",65700 ng/g
same,MRT,[2]; [5],2.36 h
same,Tmax,[2]; [5],0.5 h
same,half-life,[2]; [5],1.75 h
same,Cmax,"[2]; mouse, ip, brain, single 30 mg/kg i.p., read-out: Cmax",5150 ng/g
same,CL/F,"[2]; mouse, ip, from serum vs time profile, 30 mg/kg i.p., read-out: apparent clearance (CL/F)",77.8 mL/min/kg
same,Vd/F,"[2]; mouse, ip, from serum vs time profile, 30 mg/kg i.p., read-out: volume of distribution during the terminal phase (Vz/F)",11.1 L/kg
same,MRT,[2]; [6],1.96 h
same,Tmax,[2]; [6],0.0833 h
same,half-life,[2]; [6],1.73 h
same,Cmax,"[2]; mouse, ip, gut, single 30 mg/kg i.p., read-out: Cmax",77900 ng/g
same,MRT,[2]; [7],1.68 h
same,Tmax,[2]; [7],0.25 h
same,half-life,[2]; [7],1.31 h
same,Cmax,"[2]; mouse, ip, heart, single 30 mg/kg i.p., read-out: Cmax",38300 ng/g
same,MRT,[2]; [8],2.03 h
same,Tmax,[2]; [8],0.5 h
same,half-life,[2]; [8],1.4 h
same,Cmax,"[2]; mouse, ip, kidneys, single 30 mg/kg i.p., read-out: Cmax",93500 ng/g
same,MRT,[2]; [9],1.76 h
same,Tmax,[2]; [9],0.0833 h
same,half-life,[2]; [9],1.52 h
same,Cmax,"[2]; mouse, ip, liver, single 30 mg/kg i.p., read-out: Cmax",101000 ng/g
same,MRT,[2]; [10],2.6 h
same,Tmax,[2]; [10],0.25 h
same,half-life,[2]; [10],2.04 h
same,Cmax,"[2]; mouse, ip, lungs, single 30 mg/kg i.p., read-out: Cmax",147000 ng/g
same,MRT,[2]; [11],1.86 h
same,Tmax,[2]; [11],0.25 h
same,half-life,[2]; [11],1.65 h
same,Cmax,"[2]; mouse, ip, serum, single 30 mg/kg i.p., read-out: Cmax",3000 ng/mL
same,MRT,[2]; [12],1.66 h
same,Tmax,[2]; [12],0.25 h
same,half-life,[2]; [12],1.6 h
same,Cmax,"[2]; mouse, ip, spleen, single 30 mg/kg i.p., read-out: Cmax",193000 ng/g
same,Kp,"[2]; mouse, kidneys (relative to serum), ip, 30 mg/kg, kidneys, single 30 mg/kg i.p., read-out: Kp (tissue-to-serum partition coefficient)",45
same,Kp,"[2]; mouse, liver (relative to serum), ip, 30 mg/kg, liver, single 30 mg/kg i.p., read-out: Kp (tissue-to-serum partition coefficient)",23.7
same,Kp,"[2]; mouse, lungs (relative to serum), ip, 30 mg/kg, lungs, single 30 mg/kg i.p., read-out: Kp (tissue-to-serum partition coefficient)",89.8
same,Kp,"[2]; mouse, spleen (relative to serum), ip, 30 mg/kg, spleen, single 30 mg/kg i.p., read-out: Kp (tissue-to-serum partition coefficient)",50
same,AUClast,"[2]; serum, single 30 mg/kg i.p.",372.73 µg·min/mL (g tissue)
same,AUClast,"[2]; spleen, single 30 mg/kg i.p.",18616.26 µg·min/mL (g tissue)
same,effect on threshold for tonic hindlimb extension,[3],"strong, dose-dependent increase"
